Molecular target: tryptophan 2-monooxygenase (TMO) (Pseudomonas savastanoi, UniProt P06617)
Test: X-ray crystal structure, […] Å
Conditions: FAD-binding domain; IAM also bound

tryptophan 2-monooxygenase (TMO), sequence (P06617 whole entry): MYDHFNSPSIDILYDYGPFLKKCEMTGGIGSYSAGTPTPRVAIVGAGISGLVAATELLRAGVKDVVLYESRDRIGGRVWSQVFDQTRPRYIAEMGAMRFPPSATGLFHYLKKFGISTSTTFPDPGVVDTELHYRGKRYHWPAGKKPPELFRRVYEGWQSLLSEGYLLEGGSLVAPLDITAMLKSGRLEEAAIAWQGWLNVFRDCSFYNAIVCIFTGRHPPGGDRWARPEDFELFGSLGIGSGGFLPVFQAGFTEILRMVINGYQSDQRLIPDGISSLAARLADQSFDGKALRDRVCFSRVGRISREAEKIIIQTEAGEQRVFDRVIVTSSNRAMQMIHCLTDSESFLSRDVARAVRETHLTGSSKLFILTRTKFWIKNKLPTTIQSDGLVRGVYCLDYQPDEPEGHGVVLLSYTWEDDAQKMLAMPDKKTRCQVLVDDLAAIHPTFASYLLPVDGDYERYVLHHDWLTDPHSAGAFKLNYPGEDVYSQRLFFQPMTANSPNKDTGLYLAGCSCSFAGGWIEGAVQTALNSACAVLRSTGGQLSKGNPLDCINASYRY

For Cc1cc2nc3c(=O)[nH]c(=O)nc-3n(C[C@H](O)[C@H](O)[C@H](O)COP(=O)(O)OP(=O)(O)OC[C@H]3O[C@@H](n4cnc5c(N)ncnc54)[C@H](O)[C@@H]3O)c2cc1C [FAD], the “X-ray crystal structure, 1.95 Å” value was “The FAD cofactor and the bound indole-3-acetamide occupy a large internal cavity”.
